{"source": "ChEMBL document CHEMBL4831555", "about": "“Identification and Validation of New Interleukin-2 Ligands Using DNA-Encoded Libraries” (J Med Chem, 2021)", "key": {"Interleukin-2 [1]": {"biological_target": "T1, Interleukin-2 (Homo sapiens, UniProt P60568)", "T1 sequence (P60568 whole entry)": "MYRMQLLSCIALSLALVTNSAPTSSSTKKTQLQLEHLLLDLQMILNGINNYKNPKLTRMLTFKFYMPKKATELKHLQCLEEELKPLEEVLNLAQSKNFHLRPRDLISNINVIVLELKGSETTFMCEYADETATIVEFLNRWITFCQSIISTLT", "assay": "Binding affinity to L19-IL2 (unknown origin) by fluorescence polarization assay"}, "Albumin": {"biological_target": "Albumin (Homo sapiens, UniProt P02768)", "sequence (P02768 whole entry)": "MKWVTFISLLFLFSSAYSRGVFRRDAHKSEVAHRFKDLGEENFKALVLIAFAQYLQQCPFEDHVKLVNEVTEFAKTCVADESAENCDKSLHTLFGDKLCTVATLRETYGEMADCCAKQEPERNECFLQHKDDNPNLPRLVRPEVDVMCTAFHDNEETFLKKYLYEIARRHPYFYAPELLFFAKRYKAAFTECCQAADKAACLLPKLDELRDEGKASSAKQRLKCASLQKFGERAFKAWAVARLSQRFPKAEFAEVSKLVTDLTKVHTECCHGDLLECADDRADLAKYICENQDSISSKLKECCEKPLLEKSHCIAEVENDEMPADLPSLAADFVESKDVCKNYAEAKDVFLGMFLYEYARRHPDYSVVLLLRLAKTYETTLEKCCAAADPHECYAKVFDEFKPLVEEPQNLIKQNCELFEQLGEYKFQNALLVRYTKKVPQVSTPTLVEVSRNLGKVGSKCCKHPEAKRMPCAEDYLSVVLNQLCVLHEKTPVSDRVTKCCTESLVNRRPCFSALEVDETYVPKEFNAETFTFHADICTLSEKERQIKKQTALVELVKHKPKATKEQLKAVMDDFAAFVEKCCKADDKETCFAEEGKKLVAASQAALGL", "assay": "Binding affinity to human serum albumin by fluorescence polarization assay"}, "[2]": {"assay": "Inhibition of IL2/IL-2Ralpha (unknown origin) interaction", "parameters": "species or system Homo sapiens"}, "Interleukin-2 [3]": {"biological_target": "T1, Interleukin-2", "assay": "Binding affinity to IL2 (unknown origin) by SPR assay"}, "[4]": {"assay": "Binding affinity to AGP (unknown origin) by fluorescence polarization assay", "parameters": "species or system Homo sapiens"}, "Tumor necrosis factor": {"biological_target": "Tumor necrosis factor (Homo sapiens, UniProt P01375)", "sequence (P01375 whole entry)": "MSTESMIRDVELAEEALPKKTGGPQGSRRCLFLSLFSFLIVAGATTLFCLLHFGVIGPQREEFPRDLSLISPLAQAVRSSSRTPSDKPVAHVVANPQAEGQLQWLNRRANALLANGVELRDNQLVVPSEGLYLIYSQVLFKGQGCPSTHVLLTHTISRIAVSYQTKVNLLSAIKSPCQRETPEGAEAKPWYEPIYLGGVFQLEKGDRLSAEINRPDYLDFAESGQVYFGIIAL", "assay": "Binding affinity to TNF (unknown origin)"}, "Interleukin-2 [5]": {"biological_target": "T1, Interleukin-2", "assay": "Binding affinity to IL2 (unknown origin) preincubated for 15 mins followed by NARA1 addition and measured after 1 hr in presence of NARA1 by ELISA"}, "[6]": {"biological_target": "Interleukin-15 (Homo sapiens) (UniProt P40933)", "sequence (P40933 whole entry)": "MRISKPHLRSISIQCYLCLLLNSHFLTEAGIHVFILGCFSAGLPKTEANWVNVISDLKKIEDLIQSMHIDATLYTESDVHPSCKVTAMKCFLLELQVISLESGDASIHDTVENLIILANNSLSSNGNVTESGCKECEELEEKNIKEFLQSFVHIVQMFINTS", "assay": "Binding affinity to IL-15 (unknown origin)"}}, "note": "The source made the active and inactive calls. No cut-off for these calls is given here.", "data": [{"smiles": "O=C(N[C@@H](Cc1ccc(O)c(I)c1)C(=O)O)c1c[nH]c2cccc(F)c12", "values": [{"measurement": "Kd", "setting": "Interleukin-2 [1]", "result": 510, "unit": "nM"}, {"measurement": "Kd", "setting": "Albumin", "result": 820, "unit": "nM"}]}, {"smiles": "COC(=O)[C@H](Cc1ccc(C#Cc2ccccc2)cc1)NC(=O)C[C@@H]1CCCN(C(=N)N)C1", "values": [{"measurement": "IC50", "setting": "[2]", "result": 3000, "unit": "nM"}, {"measurement": "Kd", "setting": "Interleukin-2 [3]", "result": 22, "unit": "µM"}, {"measurement": "Kd", "setting": "[4]", "result": 4.9, "unit": "µM"}, {"measurement": "Kd", "setting": "Interleukin-2 [1]", "result": 1500, "unit": "nM"}, {"measurement": "Kd", "setting": "Albumin", "result": 4000, "unit": "nM"}]}, {"smiles": "O=C(N[C@@H](Cc1ccc(O)c(I)c1)C(=O)O)c1cc2c(F)cccc2o1", "values": [{"measurement": "Kd", "setting": "Interleukin-2 [1]", "result": 2200, "unit": "nM"}, {"measurement": "Kd", "setting": "Albumin", "result": 1000, "unit": "nM"}]}, {"smiles": "N=C(N)NCCC[C@H](NC(=O)[C@H](Cc1ccc(O)c(I)c1)NC(=O)c1cc2c(F)cccc2[nH]1)C(=O)O", "values": [{"measurement": "Kd", "setting": "Tumor necrosis factor", "result": 4.4, "unit": "µM"}, {"measurement": "IC50", "setting": "Interleukin-2 [5]", "result": 3.4, "unit": "µM"}, {"measurement": "Kd", "setting": "[4]", "result": 3.4, "unit": "µM"}, {"measurement": "Kd", "setting": "Interleukin-2 [1]", "result": 340, "unit": "nM"}, {"measurement": "Activity", "setting": "[6]", "result": "inactive"}, {"measurement": "Kd", "setting": "Albumin", "result": 2000, "unit": "nM"}]}, {"smiles": "O=C(N[C@@H](Cc1ccc(O)c(I)c1)C(=O)O)c1cc2cccc(F)c2[nH]1", "values": [{"measurement": "Kd", "setting": "Interleukin-2 [1]", "result": 390, "unit": "nM"}, {"measurement": "Kd", "setting": "Albumin", "result": 210, "unit": "nM"}]}, {"smiles": "CC(C)C[C@@H](NC(=N)N)C(=O)NCC(=O)N1CCC(c2cc(-c3ccc(OCc4ccc(C(=O)O)o4)c(Cl)c3Cl)nn2C)CC1", "values": [{"measurement": "IC50", "setting": "[2]", "result": 60, "unit": "nM"}]}, {"smiles": "O=C(N[C@@H](Cc1ccc(O)cc1)C(=O)O)c1cc2c(F)cccc2[nH]1", "values": [{"measurement": "Kd", "setting": "Interleukin-2 [1]", "result": 1400, "unit": "nM"}, {"measurement": "Kd", "setting": "Albumin", "result": 1500, "unit": "nM"}]}, {"smiles": "O=C(N[C@@H](Cc1ccc(O)c([N+](=O)[O-])c1)C(=O)O)c1cc2c(F)cccc2[nH]1", "values": [{"measurement": "Kd", "setting": "Interleukin-2 [1]", "result": 720, "unit": "nM"}, {"measurement": "Kd", "setting": "Albumin", "result": 310, "unit": "nM"}]}, {"smiles": "O=C(N[C@@H](Cc1ccc(O)c(F)c1)C(=O)O)c1cc2c(F)cccc2[nH]1", "values": [{"measurement": "Kd", "setting": "Interleukin-2 [1]", "result": 920, "unit": "nM"}, {"measurement": "Kd", "setting": "Albumin", "result": 1700, "unit": "nM"}]}, {"smiles": "COc1ccc(C[C@H](NC(=O)c2cc3c(F)cccc3[nH]2)C(=O)O)cc1", "values": [{"measurement": "Kd", "setting": "Interleukin-2 [1]", "result": 1300, "unit": "nM"}, {"measurement": "Kd", "setting": "Albumin", "result": 430, "unit": "nM"}]}, {"smiles": "O=C(N[C@@H](Cc1ccc(O)c(Cl)c1)C(=O)O)c1cc2c(F)cccc2[nH]1", "values": [{"measurement": "Kd", "setting": "Interleukin-2 [1]", "result": 590, "unit": "nM"}, {"measurement": "Kd", "setting": "Albumin", "result": 580, "unit": "nM"}]}, {"smiles": "O=C(N[C@@H](Cc1ccc(O)c(I)c1)C(=O)O)c1cc2c(F)cccc2[nH]1", "values": [{"measurement": "Kd", "setting": "Tumor necrosis factor", "result": 5.1, "unit": "µM"}, {"measurement": "Kd", "setting": "Interleukin-2 [1]", "result": 250, "unit": "nM"}, {"measurement": "Kd", "setting": "Albumin", "result": 290, "unit": "nM"}]}, {"smiles": "O=C(N[C@@H](Cc1ccc(I)cc1)C(=O)O)c1cc2c(F)cccc2[nH]1", "values": [{"measurement": "Kd", "setting": "Interleukin-2 [1]", "result": 640, "unit": "nM"}, {"measurement": "Kd", "setting": "Albumin", "result": 70, "unit": "nM"}]}, {"smiles": "N=C(N)NCCC[C@H](NC(=O)[C@@H](Cc1ccc(O)c(I)c1)NC(=O)c1cc2c(F)cccc2[nH]1)C(=O)O", "values": [{"measurement": "Kd", "setting": "[4]", "result": "> 10", "unit": "µM"}, {"measurement": "Kd", "setting": "Interleukin-2 [1]", "result": 1200, "unit": "nM"}, {"measurement": "Kd", "setting": "Albumin", "result": 3300, "unit": "nM"}]}, {"smiles": "O=C(N[C@@H](Cc1ccc2ccccc2c1)C(=O)O)c1cc2c(F)cccc2[nH]1", "values": [{"measurement": "Kd", "setting": "Interleukin-2 [1]", "result": 750, "unit": "nM"}, {"measurement": "Kd", "setting": "Albumin", "result": 30, "unit": "nM"}]}, {"smiles": "O=C(N[C@@H](Cc1ccc(O)c(I)c1)C(=O)O)c1cc2ccccc2[nH]1", "values": [{"measurement": "Kd", "setting": "Interleukin-2 [1]", "result": 420, "unit": "nM"}, {"measurement": "Kd", "setting": "Albumin", "result": 390, "unit": "nM"}]}, {"smiles": "N=C(N)NCCC[C@@H](NC(=O)[C@@H](Cc1ccc(O)c(I)c1)NC(=O)c1cc2c(F)cccc2[nH]1)C(=O)O", "values": [{"measurement": "Kd", "setting": "[4]", "result": 4, "unit": "µM"}, {"measurement": "Kd", "setting": "Interleukin-2 [1]", "result": 710, "unit": "nM"}, {"measurement": "Kd", "setting": "Albumin", "result": 7200, "unit": "nM"}]}, {"smiles": "O=C(N[C@@H](Cc1ccc(O)c(I)c1)C(=O)O)c1cc2ccc(F)cc2[nH]1", "values": [{"measurement": "Kd", "setting": "Interleukin-2 [1]", "result": 280, "unit": "nM"}, {"measurement": "Kd", "setting": "Albumin", "result": 170, "unit": "nM"}]}, {"smiles": "O=C(N[C@@H](Cc1ccc(O)c(I)c1)C(=O)O)c1cc2cc(F)ccc2[nH]1", "values": [{"measurement": "Kd", "setting": "Interleukin-2 [1]", "result": 330, "unit": "nM"}, {"measurement": "Kd", "setting": "Albumin", "result": 270, "unit": "nM"}]}, {"smiles": "N=C(N)NCCC[C@@H](NC(=O)[C@H](Cc1ccc(O)c(I)c1)NC(=O)c1cc2c(F)cccc2[nH]1)C(=O)O", "values": [{"measurement": "Kd", "setting": "[4]", "result": 3, "unit": "µM"}, {"measurement": "Kd", "setting": "Interleukin-2 [1]", "result": 870, "unit": "nM"}, {"measurement": "Kd", "setting": "Albumin", "result": 9600, "unit": "nM"}]}, {"smiles": "O=C(N[C@@H](Cc1cccc(I)c1)C(=O)O)c1cc2c(F)cccc2[nH]1", "values": [{"measurement": "Kd", "setting": "Interleukin-2 [1]", "result": 250, "unit": "nM"}, {"measurement": "Kd", "setting": "Albumin", "result": 20, "unit": "nM"}]}, {"smiles": "O=C(N[C@@H](Cc1ccc(O)c(Br)c1)C(=O)O)c1cc2c(F)cccc2[nH]1", "values": [{"measurement": "Kd", "setting": "Interleukin-2 [1]", "result": 300, "unit": "nM"}, {"measurement": "Kd", "setting": "Albumin", "result": 780, "unit": "nM"}]}, {"smiles": "O=C(N[C@H](Cc1ccc(O)c(I)c1)C(=O)O)c1cc2c(F)cccc2[nH]1", "values": [{"measurement": "Kd", "setting": "Interleukin-2 [1]", "result": 210, "unit": "nM"}, {"measurement": "Kd", "setting": "Albumin", "result": 220, "unit": "nM"}]}]}
